From PMC11864979, “First-in-class ultralong-target-residence-time p38α inhibitors as a mitosis-targeted therapy for colorectal cancer” (Nature Cancer, 2025)
Values joined by “and” are separate entries in the source; they are usually repeats but may differ in a detail not shown here. Identical values can stand only once. Like-named read-outs stand apart in the source and are kept apart here.

Experiments:
[1] = tested on: RKO; experiment: cell viability in human CRC cell line RKO; type: cell-based
Method: To generate KAP^2D cells, KAP organoids were isolated from Matrigel, fragmented by mechanical dissociation and plated without any extracellular matrix on common cell culture dishes. Phoenix-Eco packaging cells (CRL-3214), HCT-15 (CCL-225), HCT 116 (CCL-247), COLO 205 (CCL-222), LS 174T (CL-188), RKO (CRL-2577) and HT-29 (HTB-38) were obtained from the American Type Culture Collection. The cells were cultured at 37 °C and 7% CO2 with RPMI (KAP^2D cells) or DMEM (other cell lines), supplemented with 10% FBS and penicillin–streptomycin. KAP^2D cells were authenticated using PCR (Kras locus and Trp53 locus). Phoenix-Eco packaging cells and HCT-15, HCT 116, COLO 205, LS 174T, RKO and HT-29 cells were authenticated by the provider using short tandem repeat profiling. No commonly misidentified cell lines were used. Mycoplasma contamination was excluded by a PCR-based analysis.
(§1) For in vitro treatment studies, organoids were mechanically dissociated and digested using TrypLE supplemented with 100 µg ml^−1 DNaseI and 10.5 µM Y-27632 dihydrochloride (Invitrogen) at 37 °C. A total of 1,000–2,000 single cells were plated per well in white 96-well plates (Greiner) in culture medium containing 10% GFR Matrigel or Cultrex BME. The treatment with doxycycline (5 µg ml^−1), pharmacological inhibitors or corresponding volumes of DMSO was started 24 h after plating. Doxycycline was obtained from Sigma-Aldrich. […] Cell viability was measured by means of CellTiter-Glo 3D or CellTiter-Glo 2.0 reagent (Promega) according to the manufacturers’ instructions and the Infinite M Plex reader (Tecan, i-control version 3.9.1 software). Results were normalized to vehicle (DMSO) or to shNC. For cell-doubling assays, the cell number was quantified at the corresponding time points using Guava EasyCyte flow cytometer (Luminex, CytoSoft v5.2 software).

[2] = tested on: PDO11; experiment: cell viability in patient-derived CRC organoids PDO11; type: cell-based, human
Method: as §1

[3] = tested on: KAP^2D cells; experiment: annexin V apoptosis analysis in KAP^2D cells; type: cell-based, mouse; conditions: for Annexin V+ cells: Fig. 5a
Method: Apoptosis was analyzed with the FITC annexin V apoptosis detection kit (Biolegend). Both measurements were performed with FACS Canto II (BD) and physical parameters were used to exclude cell debris and cell doublets.

CNC(=O)c1ccc2c(c1)C(=O)c1ccc(Nc3ccc(F)c(NC(=O)C4CC4)c3)cc1CC2 [Compound 2015]
RKO Cell viability (%) ([1]; 0.0137 µM, ED Fig. 9g, Repetition, replicates): 116.22% and 90.48% and 118.38%
RKO Cell viability (%) ([1]; 0.0137 µM, ED Fig. 9g, first experiment, replicates): 100.34% and 101.05%
RKO Cell viability (%) ([1]; 0.0412 µM, ED Fig. 9g, Repetition, replicates): 83.96% and 99.53%
RKO Cell viability (%) ([1]; 0.0412 µM, ED Fig. 9g, first experiment, replicates): 92.30% and 91.06%
RKO Cell viability (%) ([1]; 0.1235 µM, ED Fig. 9g, Repetition, replicates): 63.64% and 62.87%
RKO Cell viability (%) ([1]; 0.1235 µM, ED Fig. 9g, first experiment, replicates): 80.06% and 70.93%
RKO Cell viability (%) ([1]; 0.3704 µM, ED Fig. 9g, Repetition, replicates): 22.09% and 24.58%
RKO Cell viability (%) ([1]; 0.3704 µM, ED Fig. 9g, first experiment, replicates): 38.23% and 37.54%
RKO Cell viability (%) ([1]; 1.1111 µM, ED Fig. 9g, Repetition, replicates): 19.45% and 19.66%
RKO Cell viability (%) ([1]; 1.1111 µM, ED Fig. 9g, first experiment, replicates): 16.15% and 15.81%
RKO Cell viability (%) ([1]; 3.3333 µM, ED Fig. 9g, Repetition, replicates): 19.33% and 18.47%
RKO Cell viability (%) ([1]; 3.3333 µM, ED Fig. 9g, first experiment, replicates): 14.04% and 13.50%
RKO Cell viability (%) ([1]; 10.0000 µM, ED Fig. 9g, Repetition, replicates): 17.62% and 19.44%
RKO Cell viability (%) ([1]; 10.0000 µM, ED Fig. 9g, first experiment, replicates): 15.71% and 16.52%
IC50 ([1]; Homo sapiens, 96 h, RKO, 4 d of treatment): 207 nM
viability at 0.0137 µM ([1]; Homo sapiens, RKO, 0.0137 µM, ED Fig. 9g, first experiment, replicates, read-out: RKO Cell viability (%)): 104%
viability at 0.0412 µM ([1]; Homo sapiens, RKO, 0.0412 µM, ED Fig. 9g, Repetition, replicates, read-out: RKO Cell viability (%)): 103%
viability at 0.0412 µM ([1]; Homo sapiens, RKO, 0.0412 µM, ED Fig. 9g, first experiment, replicates, read-out: RKO Cell viability (%)): 104%
viability at 0.1235 µM ([1]; Homo sapiens, RKO, 0.1235 µM, ED Fig. 9g, Repetition, replicates, read-out: RKO Cell viability (%)): 65.6%
viability at 0.1235 µM ([1]; Homo sapiens, RKO, 0.1235 µM, ED Fig. 9g, first experiment, replicates, read-out: RKO Cell viability (%)): 73.7%
viability at 0.3704 µM ([1]; Homo sapiens, RKO, 0.3704 µM, ED Fig. 9g, Repetition, replicates, read-out: RKO Cell viability (%)): 25.3%
viability at 0.3704 µM ([1]; Homo sapiens, RKO, 0.3704 µM, ED Fig. 9g, first experiment, replicates, read-out: RKO Cell viability (%)): 36.7%
viability at 1.1111 µM ([1]; Homo sapiens, RKO, 1.1111 µM, ED Fig. 9g, Repetition, replicates, read-out: RKO Cell viability (%)): 20%
viability at 1.1111 µM ([1]; Homo sapiens, RKO, 1.1111 µM, ED Fig. 9g, first experiment, replicates, read-out: RKO Cell viability (%)): 15.3%
viability at 3.3333 µM ([1]; Homo sapiens, RKO, 3.3333 µM, ED Fig. 9g, Repetition, replicates, read-out: RKO Cell viability (%)): 19.5%
viability at 3.3333 µM ([1]; Homo sapiens, RKO, 3.3333 µM, ED Fig. 9g, first experiment, replicates, read-out: RKO Cell viability (%)): 14.5%
viability at 10 µM ([1]; Homo sapiens, RKO, 10.0000 µM, ED Fig. 9g, Repetition, replicates, read-out: RKO Cell viability (%)): 20%
viability at 10 µM ([1]; Homo sapiens, RKO, 10.0000 µM, ED Fig. 9g, first experiment, replicates, read-out: RKO Cell viability (%)): 16.2%
viability at 0.5 µM ([2]; Homo sapiens, 96 h, PDO11, 0.5 µM, 4 d, read-out: Cell viability (%)): 105%
viability at 1 µM ([2]; Homo sapiens, 96 h, PDO11, 1 µM, 4 days): 10.3%
Cell viability (%) ([2]; PDO11, 0.5 µM, 4 d, 0.5 µM): 87.92% and 104.04%
Cell viability (%) ([2]; PDO11, 1 µM, 4 days, 1 µM): 16.83% and 13.26%
Annexin V+ cells ([3]; 1 d of treatment): 23.30% and 25.40% and 24.30% and 22.30% and 24.90% and 20.90%
Annexin V+ cells ([3]; 2 d of treatment): 41.00% and 47.90% and 34.70% and 29.60% and 31.10% and 30.20%
Annexin V+ cells ([3]; 3 d of treatment): 53.10% and 40.00% and 40.60% and 42.30% and 39.50% and 37.30%
Annexin V+ cells ([3]; 4 d of treatment): 66.80% and 62.60% and 62.90% and 52.60% and 53.50% and 56.70%
annexin V positivity (in words) ([3]; KAP^2D, after 3–4 days of treatment): strongly increased annexin V positivity
